Test results published in patent US4313943A, “7-Chloro-2,3-dihydro-5-phenyl-1-propargyl-1H-1,4-benzodiazepine-2-one, and a pharmaceutical composition thereof” (priority 1972, dated 1982).
Where “and” joins values, the source holds several entries; their conditions need not be identical. Equal values may be shown once. Entries after “also recorded” stand apart in the source; their conditions may differ.

Experiments:
[1] = Comparative tranquilizing effects: four plates test; assay type: in vivo
From the text: The method utilized was the 4 plates test of J. R. Boissier, et al (European J. of Pharm. 1968, Vol. 4, pages 145-151).

[2] = Reduction in motor activity between 60 and 90 minutes; assay type: in vivo; settings: for Reduction in Motor Activity Between 60 and 90 Minutes: significance NS (comp. 1), 0.002 (comp. 4)
[3] = Rotarod test, equilibrium (Table 6); assay type: in vivo
[4] = Convulsions induced by pentamethylenetetrazol in rats; assay type: in vivo
Protocol: The method utilized was according to the method published by Everett and Richards (1944) and Banziger (1965). The pentamethylenetetrazol was given subcutaneously (125 mg/kg) and the test compounds were given orally suspended in a 1% carboxymethyl cellulose solution.

[5] = Acute toxicity comparison (LD50, Litchfield and Wilcoxan); settings: in vivo
Protocol: Toxicity in test animals to the test compounds in terms of LD50 after oral and intraperitoneal administration was determined according to the procedure of Litchfield and Wilcoxan (1949) and the hypnotic effect on test animals was determined in accordance with the method of Janssen (1959).

[6] = Conditioned avoidance response (shuttle box); assay type: in vivo; settings: for Number of Conditioned Avoidance Responses: CMC 1% 16.7 ± 0.3
Protocol: Conditioned avoidance response by trained animals in a conventional shuttle box procedure was determined after oral administration of Compounds 1 and 4.

[7] = Conditioned emotional response (CER), tone paired with foot shock; assay type: in vivo
Protocol: Conditioned emotional response (CER) in test animals was conventionally determined by a tone paired with a foot shock which was presented to hungry animals trained to press a lever for intermittent food reinforcement. After a few such pairings, the presence of the tone alone was sufficient to disrupt the lever pressing behavior. CER is considered a model of behavior anxiety in animals. […] Thus, a 1.25 mg/kg os of compounds 1 and 4 respectively produced about a 350 and 630% increase in CER while a 5 mg/kg os of compounds 1 and 4 respectively produced about 920 and 1600% increase.

[8] = ECoG and sedation in test animals free to move; assay type: in vivo
Protocol: Some test animals were kept in restraint cases placed in a relatively soundproof room and some were left free to move in metal cases measuring 40×50×30 cm, which were also kept in a relatively quiet environment.
In the test animals which were free to move, the first signs of sedation produced by the intragastric administration of 7.5 mg/kg of compounds 1 and 4 appeared, respectively, at 16 minutes (compound 1) and at 8 minutes (compound 4). […] The duration of the effect was, however, shorter, not exceeding 3 hours under these conditions in contrast to the 5 hour minimum for restricted animals.

[9] = Cortical and hippocampal arousal thresholds on stimulation of MRF, median thalamus and posterior hypothalamus; assay type: in vivo; settings: 7.5 mg/kg intragastric
Protocol: The test animals in this study were prepared by the techniques described by Monnier and Gangloff under the preceding study (infra B, page 30). Stimulation consisted of a series of waves delivered at a frequency of 200 c/sec., lasting 0.3 m sec., with a total duration of the stimulus being 5 sec. These shocks were delivered by a Neurovar neurostimulator (Alvar Electronic) coupled with a CRC cathode oscilloscope (type OC 343). Cerebral electrical activity was recorded on a REEGA MINI HUIT electroencephalograph (Alvar Electronic). The test animals were kept in restraint cages in a relatively soundproof room.
The activity of compounds 1 and 4 was tested in a series of six test animals for each compound, with a single dose of 7.5 mg/kg administered by the intragastric route. In each animal, the arousal threshold was determined for two of the three structures tested so that for each compound, each of the three structures stimulated were tested four times.
In making the baseline tracing, the threshold voltage was determined by a finding that the duration of the arousal reaction produced by the 5-second stimulation exceeded the duration of the stimulation by at least 5 seconds, that is, for a minimum of 10 seconds.
The various thresholds were determined every 45 minutes after administration of the compounds, for a total period of four and one-half hours.
The critical value for raising of a threshold was fixed at 0.1 volts. This constituted the maximum variation recorded during 41/2 hours in the control animals.
The results were taken in two forms and then summarized. In the first result, each animal was observed, yielding the values for the thresholds recorded at each time interval as well as the ratios of the values obtained in each of the stimulated structures.

[10] = test system: posterior amygdaloid complex; test: Amygdaloid after-discharge (stimulation of posterior amygdaloid complex); assay type: in vivo; settings: 7.5 mg/kg intragastric; for Duration of Amygdaloid After-Discharge: individual animals
Protocol: The test animals for this study were also prepared according to the technique described by Monnier and Gangloff (infra B, page 30) and the animals were kept in restraint cages in a relatively soundproof room.
The activity of test compounds 1 and 4 was assessed in identical groups of test animals for each compound, with identical numbers of animals for hippocampal after-discharges and for amygdaloid after-discharges. A dose of 7.5 mg/kg of each test compound was adminstered by the intragastric route. In each animal, after-discharges were triggered every 45 minutes after the administration of a test compound.
The stimulation consisted of a series of waves with a duration of 3 m sec., delivered at a frequency of 40 c/sec., with 5 seconds as the total duration of the stimulation. The shocks were delivered by a Neurovar neurostimulator (Alvar Electronic), coupled to a CRC cathode oscilloscope (type OC 343). Cerebral electric activity was recorded by REEGA MINI HUIT electroencephalograph (Alvar Electronic).

[11] = Potentiation of narcotic effect of Veronal; settings: in vivo
[12] = 7.5 mg/kg intragastric, animals free to move

C#CCN1C(=O)CN=C(c2ccccc2)c2cc(Cl)ccc21 [Compound 1, 7-chloro-2,3-dihydro-5-phenyl-1-propargyl-1H-1,4-benzodiazepin-2-one]
ED50 ([1]; 1 h, 60 min. after administration, doses between 0.5 and 4 mg/kg, confidence limits for P = 0.05): 1.75 mg/kg | Duration of effect ([1]; compounds 1 and 4 compared): comparable | median anxiolytic dose (AD50) compared with compound 4 ([1]; four-plate study): nearly three times less than that of compound 4 | anxiolytic effect compared with compound 4 ([1]; in vivo): more effective anxiolytic effect than compound 4 | Reduction in Motor Activity Between 60 and 90 Minutes ([2]; 1 mg/kg): +19% | Reduction in Motor Activity Between 60 and 90 Minutes ([2]; 3 mg/kg): -20% | changes in motor activity / voluntary motility ([2]; in vivo): does not produce changes in motor activity | Rotarod Test % of Animals With Unchanged Equilibrium ([3]; 1 mg/kg): 41.7% | Rotarod Test % of Animals With Unchanged Equilibrium ([3]; 3 mg/kg): 58.3% | changes in equilibrium / motor coordination ([3]; in vivo): does not produce changes in motor activity or in equilibrium | % Protected Animals ([4]; 5 mg/kg/os, pentamethylenetetrazol 125 mg/kg s.c.): 10% | % Protected Animals ([4]; 10 mg/kg/os, pentamethylenetetrazol 125 mg/kg s.c.): 50% | % Protected Animals ([4]; 20 mg/kg/os, pentamethylenetetrazol 125 mg/kg s.c.): 80% | ED50 ([4]; Rattus norvegicus, oral, protection against pentamethylenetetrazol, read-out: ED50 (and C.L.) (converted)): 10.6 mg/kg | % Protected Animals ([4]; Time 90 min.): 48% | % Protected Animals ([4]; Time 120 min.): 46% | % Protected Animals ([4]; Time 180 min.): 37% | % Protected Animals ([4]; Time 240 min.): 10% | duration of protection against pentamethylenetetrazol compared with compounds 3 or 4 ([4]; rat, in vivo): protects against pentamethylenetetrazol for longer periods of time than compounds 3 or 4 | oral toxicity compared with Compounds 3 or 4 ([5]; po): lower oral toxicity | LD50 ([5]; Table 11, oral, species not given): 5820 mg/kg | % Decrease (conditioned avoidance responses) ([6]; 5 mg/kg oral): -12% | Number of Conditioned Avoidance Responses ([6]; 5 mg/kg oral): 14.5 ± 0.7 | % Decrease (conditioned avoidance responses) ([6]; 10 mg/kg oral): -19% | Number of Conditioned Avoidance Responses ([6]; 10 mg/kg oral): 13.4 ± 0.7 | % Decrease (conditioned avoidance responses) ([6]; 20 mg/kg oral): -17% | Number of Conditioned Avoidance Responses ([6]; 20 mg/kg oral): 13.7 ± 0.9 | % Decrease (conditioned avoidance responses) ([6]; 40 mg/kg oral): -44% | Number of Conditioned Avoidance Responses ([6]; 40 mg/kg oral): 9.3 ± 1.5 | activity in reducing conditioned avoidance responses compared with Compound 2 ([6]; in vivo): less active than Compound 2 | increase in CER ([7]; 1.25 mg/kg os): ~350% | increase in CER ([7]; 5 mg/kg os): about 920% | activity in antagonizing tone-induced disruption compared with Compound 4 ([7]; in vivo): about twice as active as Compound 4 | duration of the ECoG effect [8, 12]: ≤ 3 h | first signs of sedation [8, 12]: 16 min | duration of ECoG effects (three compounds compared) ([8]; unrestricted animals, compound 3 at 10 mg/kg): about 31/2 | effect on arousal pathways (in words) [9]: preferentially reduces the excitability of the hypothalamo-cortical and hippocampal pathways; also recorded: moderately reduced in duration | % of Mean Variation of arousal threshold, Cortex ([9]; MRF stimulation): +57% | % of Mean Variation of arousal threshold, Hippocampus ([9]; MRF stimulation): +50% | % of Mean Variation of arousal threshold, Cortex ([9]; Median Thalamus stimulation): +67% | % of Mean Variation of arousal threshold, Hippocampus ([9]; Median Thalamus stimulation): +73% | % of Mean Variation of arousal threshold, Cortex ([9]; Posterior Hippocampus): +83% | % of Mean Variation of arousal threshold, Hippocampus ([9]; Posterior hypothalamus stimulation): +78% | effect on amygdaloid after-discharge [10]: lasting inhibitory effect; also recorded: slightly more pronounced | Duration of Amygdaloid After-Discharge ([10]; 45 Mins.): 15 s and 0 s and 35 s and 22 s | Duration of Amygdaloid After-Discharge ([10]; 90 Mins.): 17 s and 0 s and 27 s | Duration of Amygdaloid After-Discharge ([10]; 135 Mins.): 46 s and 0 s and 37 s | Duration of Amygdaloid After-Discharge ([10]; 180 Mins.): 17 s and 0 s and 34 s | Duration of Amygdaloid After-Discharge ([10]; 225 Mins.): 42 s and 46 s and 0 s and 35 s | Duration of Amygdaloid After-Discharge ([10]; 270 Mins.): 45 s and 62 s and 0 s and 30 s | narcotic effect of a minimal dose of Veronal [11]: potentiate the narcotic effect of a minimal dose of Veronal
